The source of these data is ChEMBL document CHEMBL4007503, “Easy and rapid preparation of benzoylhydrazides and their diazene derivatives as inhibitors of 15-lipoxygenase” (Bioorg Med Chem Lett, 2017).

Assay [1] relates to Glycine max. The experiment in a line: Inhibition of soybean 15-LOX assessed as Vmax for substrate using linoleic acid as substrate by Lineweaver-Burk plot analysis.
Assay [2] in a line: Competitive inhibition of soybean 15-LOX using linoleic acid as substrate by Lineweaver-Burk plot analysis. On the set-up: species or system Glycine max.
Assay [3] has as its system Glycine max. The experiment in a line: Potency index, ratio of 4-methyl-2-(4-methylpiperazinyl)-pyrimido[4,5b]benzothiazine IC50 to compound IC50 for soybean 15-LOX.
Assay [4] deals with Glycine max. Kind of assay: Inhibition of soybean 15-LOX assessed as Km for substrate using linoleic acid as substrate by Lineweaver-Burk plot analysis.
Assay [5] has as its system Glycine max. Kind of assay: Inhibition of soybean 15-LOX at 10 uM using linoleic acid as substrate relative to control.
Assay [6] in a line: Antioxidant activity assessed as ferric ion reducing activity by measuring Fe2+ levels using Fe3+-TPTZ after 40 mins by FRAP assay. The class given is functional.
Assay [7] can be described thus: Inhibition of soybean 15-LOX using linoleic acid as substrate. On the set-up: species or system Glycine max.
Assay [8] is described as follows: Antioxidant activity assessed as cupric ion reducing activity after 30 mins by CUPRAC assay. The class given is functional.
The target of assay [9] is T1, Polyunsaturated fatty acid lipoxygenase ALOX15 (Homo sapiens, UniProt P16050).
T1 sequence (P16050 whole entry): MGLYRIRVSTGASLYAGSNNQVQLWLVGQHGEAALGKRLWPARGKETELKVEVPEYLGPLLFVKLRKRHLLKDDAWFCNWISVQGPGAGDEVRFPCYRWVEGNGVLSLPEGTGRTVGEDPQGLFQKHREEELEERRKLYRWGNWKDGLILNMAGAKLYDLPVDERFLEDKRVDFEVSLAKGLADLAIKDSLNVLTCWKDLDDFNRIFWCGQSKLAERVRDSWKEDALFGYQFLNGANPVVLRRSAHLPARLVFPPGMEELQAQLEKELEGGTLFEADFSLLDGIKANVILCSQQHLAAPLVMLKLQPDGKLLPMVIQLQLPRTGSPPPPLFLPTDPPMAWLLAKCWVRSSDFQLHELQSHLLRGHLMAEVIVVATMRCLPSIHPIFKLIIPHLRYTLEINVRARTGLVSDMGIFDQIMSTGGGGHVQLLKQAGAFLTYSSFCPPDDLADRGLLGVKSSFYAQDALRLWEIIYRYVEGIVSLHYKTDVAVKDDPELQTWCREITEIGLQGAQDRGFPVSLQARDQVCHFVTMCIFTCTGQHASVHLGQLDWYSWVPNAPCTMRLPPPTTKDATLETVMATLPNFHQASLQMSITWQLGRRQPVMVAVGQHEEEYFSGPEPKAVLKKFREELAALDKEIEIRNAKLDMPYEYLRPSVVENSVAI
Kind of assay: Inhibition of thapsigargin-stimulated 15-LOX in human primary polymorphonuclear leukocytes using arachidonic acid as substrate preincubated for 5 mins followed by thapsigargin stimulation for 5 mins by RP-HPLC method.

Assay [10] addresses T1, Polyunsaturated fatty acid lipoxygenase ALOX15. The experiment in a line: Inhibition of 15-LOX in human primary polymorphonuclear leukocytes.

Calls of active or inactive are those of the source. No cut-off for these calls is given here.

Broadly, the Vmax is the rate approached at saturating substrate. For orientation: Ki means the equilibrium dissociation constant of an inhibitor or competing ligand from its target. Low values mean a stronger hold on the target, high ones a looser hold on the target. In general, Km refers to the concentration of substrate that gives half-maximal velocity. A word on the inhibition: it is how much of the control response was suppressed. What is called IC50 is the concentration at which inhibition is half-maximal. High values mean a need for much substance, low ones inhibition by little substance. On to `Cc1ccc(NNC(=O)c2ccccc2)cc1`, for which the Vmax with Glycine max [1] is 0.46 µM/s. Further, the Ki in assay [2] amounted to 0.81 µM. For the same compound, in the assay with Glycine max [3], the Ratio IC50 turned out to be 3.4. For the same compound, in the assay with Glycine max [4], the Km came out at 89.6 µM. In the assay on Glycine max [5], the inhibition worked out at 93%. Besides, the outcome in assay [6] was Active. Besides, the half-inhibitory concentration (IC50) in assay [7] is 5.35 µM.

Turning to `N#Cc1ccc(/N=N/C(=O)c2ccccc2)cc1`, the Vmax with Glycine max [1] was found to be 0.57 µM/s. The affinity in [2] corresponds to a Ki of 3.89 µM. The Km in the assay on Glycine max [4] worked out at 140 µM. This compound also registered an inhibition with Glycine max [5] of 80%. In [7], the IC50 is 9.78 µM.

For `O=C(NNc1ccccc1)c1ccccc1`, the result in assay [8] and in assay [6] was Active. This compound also returned an inhibition in the assay with Glycine max [5] of 33%.

`COc1ccc(/N=N/C(=O)c2ccccc2)cc1` had an inhibition in the assay with Glycine max [5] of 19%.

Consider `O=C(/N=N/c1ccc([N+](=O)[O-])cc1)c1ccccc1`, for which the inhibition with Glycine max [5] was determined as 34%.

`NS(=O)(=O)c1ccc(NNC(=O)c2ccccc2)cc1` gave an inhibition in the assay on Glycine max [5] of 10%.

On to `O=C(/N=N/c1ccc(Br)cc1)c1ccccc1`, for which the inhibition with Glycine max [5] is 44%.

On to `O=C(/C=C/c1ccc(O)c(O)c1)OCCc1ccccc1` [CAFFEIC ACID PHENETHYL ESTER], for which the IC50 in assay [9] was 0.13 µM.

`CC(c1cc2ccccc2s1)N(O)C(N)=O` (stereo not given) [ZILEUTON] gave an IC50 in assay [10] of 0.4 µM.

`COc1ccc(NNC(=O)c2ccccc2)cc1` displayed an inhibition in the assay with Glycine max [5] of 73%. The result in assay [6] was Active.

The compound `N#Cc1ccc(NNC(=O)c2ccccc2)cc1` displayed an inhibition in the assay on Glycine max [5] of 9%.

As for `O=C(NNc1ccc([N+](=O)[O-])cc1)c1ccccc1`, the inhibition in the assay on Glycine max [5] was determined as 17%.

Regarding `Cc1ccc(/N=N/C(=O)c2ccccc2)cc1`, the inhibition with Glycine max [5] is 44%.

For the compound `O=C(NNc1ccc(Br)cc1)c1ccccc1`, the inhibition in the assay on Glycine max [5] is 28%. Moreover, the outcome in assay [6] was Active.

With `O=C(/N=N/c1ccccc1)c1ccccc1`, in the assay on Glycine max [5], the inhibition was 87%. For the same compound, 6.97 µM corresponded to half-maximal inhibition in assay [7] (IC50).
